The values below come from BindingDB's records for doi:10.7270/Q2765CSM (Burnham Center For Chemical Genomics, 2011).

The target in the test is T1, Hexokinase-1 (Homo sapiens, UniProt P19367).
T1 sequence (P19367 whole entry): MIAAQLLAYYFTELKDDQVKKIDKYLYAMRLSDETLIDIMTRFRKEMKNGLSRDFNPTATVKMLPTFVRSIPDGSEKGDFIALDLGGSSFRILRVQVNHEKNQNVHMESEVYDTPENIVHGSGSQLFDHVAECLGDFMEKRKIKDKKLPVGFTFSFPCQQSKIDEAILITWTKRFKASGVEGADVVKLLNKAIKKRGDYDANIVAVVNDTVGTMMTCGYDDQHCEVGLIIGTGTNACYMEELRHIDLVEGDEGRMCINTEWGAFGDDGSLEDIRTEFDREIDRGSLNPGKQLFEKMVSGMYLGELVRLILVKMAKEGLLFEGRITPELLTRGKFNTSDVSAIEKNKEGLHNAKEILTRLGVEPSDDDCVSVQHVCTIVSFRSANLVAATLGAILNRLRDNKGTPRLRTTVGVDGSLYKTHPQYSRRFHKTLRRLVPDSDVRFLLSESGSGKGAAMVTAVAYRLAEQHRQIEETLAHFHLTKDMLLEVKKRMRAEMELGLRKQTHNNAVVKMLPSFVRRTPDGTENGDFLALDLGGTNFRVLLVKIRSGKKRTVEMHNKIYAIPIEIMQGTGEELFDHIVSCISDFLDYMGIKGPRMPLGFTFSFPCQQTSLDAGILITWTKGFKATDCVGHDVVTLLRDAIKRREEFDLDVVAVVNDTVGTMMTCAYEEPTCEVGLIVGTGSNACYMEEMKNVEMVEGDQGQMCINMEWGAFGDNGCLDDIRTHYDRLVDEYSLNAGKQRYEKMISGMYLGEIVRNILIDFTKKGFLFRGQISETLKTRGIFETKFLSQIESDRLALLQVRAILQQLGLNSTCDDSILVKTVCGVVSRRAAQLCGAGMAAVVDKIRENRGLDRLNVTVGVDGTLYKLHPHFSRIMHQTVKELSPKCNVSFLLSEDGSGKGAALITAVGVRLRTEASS
The test is described as follows: HK1 enzyme activation by HKDC1 hits – biochemical, selectivity assay for HKDC1 activator project, dose response (AID 504762).
Regarding `CC(C)(C)c1nnc(N=NCc2cc(Br)ccc2O)n(N)c1=O` [4-azanyl-3-[2-[(E)-(3-bromanyl-6-oxidanylidene-cyclohexa-2,4-dien-1-ylidene)methyl]hydrazinyl]-6-tert-butyl-1,2,4-triazin-5-one], the half-maximal effective concentration (EC50) was more than 80 µM. In the case of `Cc1ccc2c(C)c3ccc4ccccc4c3c[n+]2c1` [MLS002701915], the EC50 came to 5.2 µM. Consider `CC(=O)Oc1cccc2c(O)c3c(c(O)c12)CC=CC3OC(C)=O` (centres undefined) [SMR001574207], for which the 50% effective concentration (EC50) was 34.1 µM. Against the preceding compound, the EC50 is about 6.6-fold higher.

`Oc1c(Cl)c(N=Cc2cccnc2)c(O)c2ccccc12` [MLS001195521] showed a concentration giving a half-maximal response (EC50) of 30.8 µM.

As for `O=C1C(=C2C(=O)c3ccccc3C2=O)Nc2ccccc21` [MLS000071738], a half-maximal response (EC50) required 37.1 µM.

`Nn1cnnc1N=NCc1cc(Br)cc(Br)c1O` yielded an EC50 of 42.3 µM. Compound `CCCOC1=CC(=O)C(C=NNC(=S)Nc2ccccc2[N+](=O)[O-])C=C1` (centres undefined) [1-(2-nitrophenyl)-3-[[(E)-(6-oxo-4-propoxy-1-cyclohexa-2,4-dienylidene)methyl]amino]thiourea] returned a 50% effective concentration (EC50) of more than 80 µM. As for `Cc1[nH]n(-c2ccccc2)c(=O)c1CN=Nc1nncc(-c2ccccc2)n1` [(4E)-5-methyl-2-phenyl-4-[[(5-phenyl-1,2,4-triazin-3-yl)hydrazo]methylidene]-3-pyrazolone], the figure is more than 80 µM; as for `CC(N=Nc1nc2ccccc2o1)c1cc2ccccc2cn1` (centres undefined), more than 80 µM.
